In patent publication US9809604B2, “DGAT1 inhibitor and preparation method and use thereof” (Qingdao Huanghai Pharmaceutical Co., Ltd., priority 2013, dated 2017) one finds IC50 data, which are given here for 18 molecules.

This assay deals with T1, DGAT1 (Homo sapiens, UniProt O75907).
T1 sequence (O75907 1-488): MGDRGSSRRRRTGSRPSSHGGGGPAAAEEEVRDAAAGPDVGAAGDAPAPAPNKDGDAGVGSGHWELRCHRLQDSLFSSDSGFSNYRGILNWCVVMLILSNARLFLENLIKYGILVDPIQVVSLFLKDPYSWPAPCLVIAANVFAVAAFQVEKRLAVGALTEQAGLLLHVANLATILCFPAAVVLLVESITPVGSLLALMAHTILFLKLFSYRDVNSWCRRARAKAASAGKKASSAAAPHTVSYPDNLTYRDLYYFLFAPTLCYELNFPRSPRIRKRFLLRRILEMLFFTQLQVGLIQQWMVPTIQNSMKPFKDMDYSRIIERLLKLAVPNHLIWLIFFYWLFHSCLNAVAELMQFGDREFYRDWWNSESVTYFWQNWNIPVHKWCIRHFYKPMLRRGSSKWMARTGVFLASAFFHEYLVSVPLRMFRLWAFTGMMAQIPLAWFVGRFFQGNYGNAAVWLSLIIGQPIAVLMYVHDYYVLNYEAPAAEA
The experiment in a line: Human DGAT1 IC50 enzyme assay (Flashplate, 14C-labeled acyl-CoA). It counts as biochemical. Also on record: made in house. On the procedure: The ability of compounds to inhibit DGAT enzyme activity is determined by calculating IC50 values of test compounds. Ki values of DGAT1 are calculated as follows: Cheng-Prusoff equation: Ki=IC50/(1+[S]/Km)
(1) Human DGAT1 IC50 (nM) Experiment
Human DGAT1 activity was determined as follows:
Expressing human DGAT1 enzyme, used diacylglycerol and 14C-labeled acyl-CoA as the substrate, choose PE Company Flashplate testing board to build DGAT1 enzyme reaction system. 14C-labeled acyl-CoA binds to diacylglycerol by covalent bonding after enzymology reaction, and generates the product of 14C-labeled triglyceride. 14C-labeled acyl-CoA substrate is dissolved in reaction solution and 14C-labeled triglyceride product combine with phospholipids of Flashplate plate bottom layer, thus effectively separate labeled substrates and products. The radioactive of 14C-labeled triglyceride which is combined with phospholipid layer is counted, and the potencies of DGAT-1 inhibition for the compounds are determined by calculating the IC50 values.

[1] abbreviates: average of first and second, read-out: hDGAT1 IC50(nM) Average.
[2] abbreviates: first determination, read-out: hDGAT1 IC50(nM) First.
Setting [3] is: second determination, read-out: hDGAT1 IC50(nM) Second.

SMILES strings stand for the structures. Read-outs that look alike come from different tables or passages of the source.

For `Nc1ncnc2c1C(=O)N(c1ccc(-c3cnn(CCC(=O)O)c3)c(F)c1)CCO2` [Compound 37, 3-(4-(4-(4-amino-5-oxo-7,8-dihydropyrimido[5,4-f][1,4]oxazepin-6(5H)-yl)-2-fluorophenyl)-1H-pyrazol-1-yl) propanoic acid], the IC50 reads like this: under setting [1], 79.6 nM; under setting [2], 84.6 nM; under setting [3], 74.5 nM.

Consider `Cc1nn(CCC(=O)O)c(C)c1-c1ccc(N2CCOc3ncnc(N)c3C2=O)cc1Cl` [Compound 38, 3-(4-(4-(4-amino-5-oxo-7,8-dihydropyrimido[5,4-f][1,4]oxazepin-6(5H)-yl)-2-chlorophenyl)-3,5-dimethyl-1H-pyrazol-1-yl)propanoic acid], for which the IC50 reads like this: under setting [1], 50.7 nM; under setting [2], 46.5 nM; under setting [3], 55 nM.

With `Nc1ncnc2c1C(=O)N(c1ccc(-c3cn(CC(=O)O)nc3C(F)(F)F)cc1)CCO2` [Compound 39, 2-(4-(4-(4-amino-5-oxo-7,8-dihydropyrimido[5,4-f][1,4]oxazepin-6(5H)-yl)phenyl)-3-(trifluoromethyl)-1H-pyrazol-1-yl)acetic acid], the IC50 reads like this: under setting [1], 98.4 nM; under setting [2], 72.9 nM; under setting [3], 124 nM.

`CC(C)(O)Cn1cc(-c2ccc(N3CCOc4ncnc(N)c4C3=O)cc2Cl)cn1` [Compound 42, 4-amino-6-(3-chloro-4-(1-(2-hydroxy-2-methylpropyl)-1H-pyrazol-4-yl)phenyl)-7,8-dihydropyrimido[5,4-f][1,4]oxazepin-5(6H)-one]: the concentration for half-maximal inhibition (IC50) under setting [1] was 59.6 nM, the IC50 under setting [2] was 75 nM and the IC50 under setting [3] was 44.2 nM.

On to `Cc1cc(N2CCOc3ncnc(N)c3C2=O)cc(C)c1-c1cn(CC(F)F)nc1C` [Compound 43, 4-amino-6-(4-(1-(2,2-difluoroethyl)-3-methyl-1H-pyrazol-4-yl)-3,5-dimethylphenyl)-7,8-dihydropyrimido[5,4-f][1,4]oxazepin-5(6H)-one], for which the IC50 came out at 17.6 nM under setting [1], 18.5 nM under setting [2] and 16.7 nM under setting [3].

As to `CC(C)(CO)Cn1cc(-c2ccc(N3CCOc4ncnc(N)c4C3=O)cc2Cl)cn1` [Compound 44, 4-amino-6-(3-chloro-4-(1-(3-hydroxy-2,2-dimethylpropyl)-1H-pyrazol-4-yl)phenyl)-7,8-dihydropyrimido[5,4-f][1,4]oxazepin-5(6H)-one], the IC50 runs as follows: under setting [1], 45 nM; under setting [2], 59.5 nM; under setting [3], 30.5 nM.

`CC(C)Cn1cc(-c2ccc(N3C[C@@H](C)Oc4ncnc(N)c4C3=O)cc2Cl)cn1` [Compound 45, (R)-4-amino-6-(3-chloro-4-(1-isobutyl-1H-pyrazol-4-yl)phenyl)-8-methyl-7,8-dihydropyrimido[5,4-f][1,4]oxazepin-5(6H)-one]: the IC50 runs as follows: under setting [1], 16 nM; under setting [2], 17.4 nM; under setting [3], 14.6 nM.

Turning to `NC(=O)Cn1cc(-c2ccc(N3CCOc4ncnc(N)c4C3=O)cc2Cl)cn1` [Compound 46, 2-(4-(4-(4-amino-5-oxo-7,8-dihydropyrimido[5,4-f][1,4]oxazepin-6(5H)-yl)-2-chlorophenyl)-1H-pyrazol-1-yl)acetamide], the IC50 came out at 95.6 nM under setting [1], 89 nM under setting [2] and 102 nM under setting [3].

On to `Cc1cc(N2CCOc3ncnc(N)c3C2=O)cc(C)c1-c1cn(CC2(C)COC2)nc1C` [Compound 47, 4-amino-6-(3,5-dimethyl-4-(3-methyl-1-((3-methyloxetan-3-yl)methyl)-1H-pyrazol-4-yl)phenyl)-7,8-dihydropyrimido[5,4-f][1,4]oxazepin-5(6H)-one], for which the IC50 was 87 nM under setting [1], 65.4 nM under setting [2] and 109 nM under setting [3].

For `Nc1ncnc2c1C(=O)N(c1ccc(-c3cnn(CC(=O)O)c3)c(Cl)c1)CCO2` [Compound 56, 2-(4-(4-(4-amino-5-oxo-7,8-dihydropyrimido [5,4-f][1,4]oxaxepin-6(5H)-yl)-2-chlorophenyl)-1H-pyrazol-1-yl)acetic acid], the IC50 by setting is: under setting [1], 51.8 nM; under setting [2], 65.8 nM; under setting [3], 37.7 nM.

Regarding `Cc1cc(N2CCOc3ncnc(N)c3C2=O)ccc1-c1cnn(CC(=O)O)c1` [Compound 57, 2-(4-(4-(4-amino-5-oxo-7,8-dihydropyrimido [5,4-f][1,4]oxazepin-6(5H)-yl)-2-methylphenyl)-1H-pyrazol-1-yl)acetic acid], the half-maximal inhibitory concentration (IC50) amounted to 91.9 nM under setting [1], 81.3 nM under setting [2] and 102 nM under setting [3].

For the molecule `Cc1cc(N2CCOc3ncnc(N)c3C2=O)ccc1-c1cnn(C(C(=O)O)C(C)C)c1` (stereo not drawn) [Compound 59, 2-(4-(4-(4-amino-5-oxo-7,8-dihydropyrimido [5,4-f][1,4]oxazepin-6(5H)-yl)-2-methylphenyl)-1H-pyrazol-1-yl)-3-methylbutanoic acid], the IC50 was 80.3 nM under setting [1], 54.9 nM under setting [2] and 106 nM under setting [3].

For `CCC(C(=O)O)n1cc(-c2ccc(N3CCOc4ncnc(N)c4C3=O)cc2Cl)cn1` (stereo not drawn) [Compound 61, 2-(4-(4-(4-amino-5-oxo-7,8-dihydropyrimido [5,4-f][1,4]oxazepin-6(5H)-yl)-2-chlorophenyl)-1H-pyrazol-1-yl)butanoic acid], the IC50 under setting [1] was found to be 37.8 nM, the half-maximal inhibitory concentration (IC50) under setting [2] was found to be 28.2 nM and the IC50 under setting [3] was 47.4 nM.

In the case of `Nc1ncnc2c1C(=O)N(c1ccc(-c3cn(CCC(=O)O)nc3C(F)(F)F)cc1)CCO2` [Compound 62], the IC50 under setting [1] came to 68.2 nM, the IC50 under setting [2] was determined as 57.9 nM and the IC50 under setting [3] worked out at 78.6 nM.

For the molecule `CCC(C(=O)O)n1cc(-c2ccc(N3CCOc4ncnc(N)c4C3=O)cc2C)cn1` (stereo not drawn) [Compound 64, 2-(4-(4-(4-amino-5-oxo-7,8-dihydropyrimido [5,4-f][1,4]oxazepin-6(5H)-yl)-2-methylphenyl)-1H-pyrazol-1-yl)butanoic acid], the IC50 under setting [1] is 57.6 nM, the IC50 under setting [2] was determined as 38.7 nM and the IC50 under setting [3] amounted to 76.5 nM.

As to `CC(C)C(C(=O)O)n1cc(-c2ccc(N3CCOc4ncnc(N)c4C3=O)cc2Cl)cn1` (stereo not drawn) [Compound 65, 2-(4-(4-(4-amino-5-oxo-7,8-dihydropyrimido [5,4-f][1,4]oxazepin-6(5H)-yl)-2-chlorophenyl)-1H-pyrazol-1-yl)-3-methylbutanoic acid], the IC50 reads like this: under setting [1], 41.5 nM; under setting [2], 39 nM; under setting [3], 44.1 nM.

As for `Cc1cc(N2CCOc3ncnc(N)c3C2=O)cc(C)c1-c1cnn(C(C)(C)C(=O)O)c1` [Compound 66, 2-(4-(4-(4-amino-5-oxo-7,8-dihydropyrimido [5,4-f][1,4]oxazepin-6(5H)-yl)-2,6-dimethylphenyl)-1H-pyrazol-1-yl)-2-methylpropanoic acid], the IC50 under setting [1] turned out to be 42.6 nM, the IC50 under setting [2] was determined as 47.1 nM and the IC50 under setting [3] was found to be 38.2 nM.

On to `Cc1cc(N2CCOc3ncnc(N)c3C2=O)cc(C)c1-c1cnn(CC(=O)O)c1` [Compound 67, 2-(4-(4-(4-amino-5-oxo-7,8-dihydropyrimido [5,4-f][1,4]oxazepin-6(5H)-yl)-2,6-dimethylphenyl)-1H-pyrazol-1-yl)acetic acid], for which the IC50 was found to be 53.2 nM under setting [1], 56.1 nM under setting [2] and 50.3 nM under setting [3].

What is called IC50 is the point on the concentration scale where inhibition reaches its midpoint.
